Assay results published in patent publication US10590383B2, “Methods for differentiating pluripotent cells” (FUJIFILM Cellular Dynamics, Inc., priority 2016, dated 2020).
Entries after “also recorded” stand apart in the source; their conditions may differ.

Experiments:
[1] = tested on: human induced pluripotent stem cell (iPS) cell lines; assay: mDA progenitor patterning on process day 17 (FoxA2 by flow cytometry, FoxA2/Lmx1 co-expression by ICC); type: cell-based; details: for use in mono-SMAD inhibition methods to produce midbrain dopaminergic neurons from iPS cells / percentage of mDA progenitors induced (FoxA2 / FoxA2+Lmx1 cells): single SMAD inhibitor; for percentage of mDA progenitors induced (FoxA2 / FoxA2+Lmx1 cells): alternate patterning conditions, multiple iPSC lines, process day 17
Procedure: Midbrain neuronal differentiation of human induced pluripotent stem cell (iPS) cell lines expanded on VTN-TN in Essential 8 medium was performed with small molecule and growth factor induction using a variety of differentiation media compositions and schedules as detailed in Tables 1-5. Generally, the iPS cells were cultured in D1 DA Neuron Induction Medium on Day 1, D2 Neuron Induction Medium on Day 2, and D3-D4 DA Induction Medium on Day 3 and 4. On Day 5, the cells were dissociated with TrypLE for 15 minutes and collected in DA Quench Medium before transferring the cells to a spinner flask suspension culture to form aggregates in D5 DA Neuron Aggregate Formation Medium.
On Day 6, the aggregates were settled, about 66% of the medium was removed, and the aggregates were fed DA Neuron Induction Medium. On Days 7-16, the aggregates were fed daily with DA Neuron Aggregate Maintenance Medium, and the medium was changed on Day 11 through 16. On Day 17, aggregates were dissociated to a single-cell suspension with TrypLE and plated onto Matrigel in D17 DA Neuron Aggregate Plating Medium. On Days 18, 20, 22 the medium was replaced with DopaNeuron Maturation Medium. On Day 24, the cells were dissociated using Accutase and plated in DA Neuron Maturation Plating Medium. The next day, the medium was replaced with DopaNeuron Maturation Medium.
The iCell DopaNeurons process was optimized with most progenitor patterning factors added starting on day 1. This includes factors for neuralization (dual-SMADi), sonic hedgehog signaling (Shh, PMN), and Wnt signaling (CHIR). […] A large number of optimization experiments were carried out across several iPSC lines to define conditions for efficient mono-SMADi mDA progenitor patterning, varying the timing and dose of all patterning factors. […] In the alternate (ALT) method, the SHH/Purmophamine addition was moved from Day 1 to Day 2. The changes utilized in this improvement included: (i) staggering the addition of the Wnt agonist (CHIR) to day 2 or day 3, (ii) re-optimizing the CHIR concentration, as this is dependent on the time it is first added, and (iii) moving the window where PD03 is added, as the optimal window depends on when CHIR is added. The end result was a narrow set of conditions that led to highly-efficient mDA progenitor formation in multiple iPS cell lines. Approximately half of the iPSC lines tested were able to generate mDA progenitors using mono-SMADi conditions.
FoxA2/Lmx1 coexpression is the most accurate marker for mDA progenitor cells. The use of alternate patterning conditions allows for efficient mDA progenitor patterning in the context of mono-SMAD inhibition (“Mono/Alternate”), whereas the standard patterning conditions have poor mDA progenitor patterning in the context of mono-SMAD inhibition (“Mono/Standard”). Control differentiations using dual-SMADi and standard patterning conditions (“Dual/Standard”) are shown for comparison.
Once an alternate patterning condition was identified that allowed for successful differentiation using mono-SMAD inhibition (Condition 1, i.e., Table 4: Alternate, LDN at 200 nM), the method was refined using a matrix of conditions, including the concentration of CHIR, and the treatment windows for Shh signaling, Wnt signaling, and MEK inhibition. […] Tyrosine hydroxylase (TH) expression is low in immature mDA neurons.
Different inhibitors were tested for function in mono-SMADi methods, as follows. The iCell DopaNeurons process induces neuralization using LDN-193189, an inhibitor of BMP signaling (inhibits ALK 1/2/3/6, blocks SMAD 1/5/8), and SB-431542, an inhibitor of TGF-b signaling (inhibits ALK 4/5/7, blocks SMAD 2/3). Together, this is referred to as “dual SMAD inhibition”, or “dual SMADi.” To define optimal conditions for neuralization using only a single SMAD inhibitor in the mDA process, various analogs of LDN-193189 and SB-431542 were screened across multiple iPS cell lines using the alternate patterning conditions described above. […]

[2] = tested on: dividing cells / post-mitotic mDA neurons; assay: In-process purification of mDA neurons with mitomycin C (neuron purity MAP2+/nestin-, day 37); type: cell-based, human; details: chemo drug selection, no selection gave 44%
Description: In-Process Purification of mDA Neurons: Even with efficient mDA progenitor patterning, there is a population of cells that continues to proliferate even after the maturing mDA neurons leave the cell cycle (approximately day 25). […] Intermediate doses given for intermediate times could also be used to achieve a similar effect.

iPSC-derived mDA neurons = assay: Marker characterization at process completion, day 37 (MAP2/nestin, FoxA2, TH); type: cell-based, human; details: 2 μM LDN versus 200 nM, Condition 7, iPSC line K
Description: On Day 31, the cells were dissociated with Accutase and re-plated onto poly-L-ornithine (PLO)/Laminin-coated flasks in DA Neuron Maturation Plating Medium. Next, on Days 32, 34, and 36, the cells were fed DopaNeuron Maturation Medium. On Day 37 or 38, the cells were again dissociated with Accutase and subjected to analysis or cryopreserved for later use.
Three iPSC lines (C, K, and H) are shown as examples of successful differentiations taken to process completion (day 37) (FIG. 5). The iPSC lines C, K, and H are iPSC lines (21526.101, 21534.101, and 21531.101, respectively). Data was obtained using the approach in Table 4 for Alternate LDN and Table 1 for Standard Dual control. Differentiation of the H line using dual-SMADi and the optimized standard patterning is shown for comparison. In each case, a high level of neuron purity was observed (>90% MAP2+/nestin−), and essentially all neurons co-express FoxA2. The inventors have observed that the vast majority of MAP2+/FoxA2+ cells at this stage also express Lmx1, and are therefore mDA neurons. The DA neuron phenotype was confirmed by the expression of tyrosine hydroxylase (TH) in the majority of neurons, a marker of more mature DA neurons. […]

[3] = target: TGF-β type 1 (ALK4/5/7) receptor signaling; details: read-out: IC50 for inhibition of TGF-β type 1 (ALK4/5/7) receptor signaling; cited from earlier work

Compound	use in mono-SMAD inhibition methods to produce midbrain dopaminergic neurons from iPS cells [1]	percentage of mDA progenitors induced (FoxA2 / FoxA2+Lmx1 cells) [1]	also measured
CC(C)Oc1ccc(-c2cnc3c(-c4ccnc5ccccc45)cnn3c2)cc1 [DMH-1]	successfully used	–	–
CO[C@@]12[C@H](COC(N)=O)C3=C(C(=O)C(C)=C(N)C3=O)N1C[C@@H]1N[C@@H]12 [MMC, mitomycin C]	–	–	final neuron purity (MAP2+/nestin−) [2]: > 90%
c1ccc(-c2[nH]ncc2-c2ccnc3ccccc23)nc1 [LY364947]	–	did not outperform LDN	–
c1ccc2c(-c3cnn4cc(-c5ccc(N6CCNCC6)cc5)cnc34)ccnc2c1 [LDN-193189]	successfully used	best overall at inducing the highest percentage of mDA progenitors; also recorded: most efficient at neutralizing mDA progenitors across multiple iPSC lines	percentage of floor plate-derived neurons (FoxA2+) on process day 37 (iPSC-derived mDA neurons): higher percentage of floor plate-derived neurons (FoxA2+); IC50 [3]: > 0.5 µM; FoxA2 and Lmx1 expression levels in day 17 progenitors ([1]; 2 μM LDN versus 200 nM, Condition 7, iPSC line K, n=5 experiments): higher FoxA2 and Lmx1 expression levels
Cc1cccc(-c2nn(C(=S)Nc3ccccc3)cc2-c2ccnc3ccccc23)n1 [A-83-01]	–	did not outperform LDN	–
